Publication PMC3815312, “A Set of Engineered Escherichia coli Expression Strains for Selective Isotope and Reactivity Labeling of Amino Acid Side Chains and Flavin Cofactors” (PLoS ONE, 2013)

Biological target: T1, Slr1694 (SyPixD) (Synechocystis sp. PCC 6803, UniProt P74295)
T1 construct: wild type, expressed from pET28a(+)-slr1694 in E. coli CpX strains (CpXribF, CpXdeltaY); N-terminal vector extension (peptide 33-GSEFMSLYR-41 seen by MS); flavin incorporated in vivo; unlabeled, ring-13C6-Tyr or 13C apoprotein
T1 sequence (P74295 1-150): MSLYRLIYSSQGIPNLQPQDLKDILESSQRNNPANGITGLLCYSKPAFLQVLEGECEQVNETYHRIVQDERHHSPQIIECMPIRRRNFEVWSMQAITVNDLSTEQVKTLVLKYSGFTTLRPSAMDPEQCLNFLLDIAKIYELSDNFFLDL
Test: light-minus-dark FTIR difference spectroscopy of holoprotein
Type: binding
Settings: in H2O; blue light 460 nm; non-covalent flavin incorporated in vivo (unlabeled riboflavin fed); bound flavin species not analysed, FMN and FAD named

Cc1cc2nc3c(=O)[nH]c(=O)nc-3n(C[C@H](O)[C@H](O)[C@H](O)COP(=O)(O)OP(=O)(O)OC[C@H]3O[C@@H](n4cnc5c(N)ncnc54)[C@H](O)[C@@H]3O)c2cc1C [FAD]
light-minus-dark FTIR difference spectroscopy of holoprotein: unlabeled riboflavin was provided in the medium throughout the cultivation procedure for the production of FMN and FAD cofactors
